In patent publication US20080206311A1, “Sucrase Activity Inhibitor, Glucoamylase Activity Inhibitor and Food and Feed Containing the Same” (MITSUI SUGAR CO., LTD., priority 2005, published 2008):
Entries after “also recorded” stand apart in the source; their conditions may differ.

How the values were obtained:
glucoamylase = test: Ratio of inhibitor to the substrate dextrin (Examples 10, 11); type: biochemical, rat
Description: Each 0.15 ml of a small intestinal enzyme solution was added to each 2.5 ml of the aforementioned 20 samples, each mixture, and placed in a water bath at 37° C. to allow reaction for 10 minutes while shaken at 60 strokes/min. At the end of the reaction, the mixture was heated in a boiling water bath for 3 min. for inactivation of the enzyme. As a blank, 0.15 ml of the intestinal enzyme solution was added to 0.1 M phosphate buffer (pH 6.8) and the enzyme was inactivated immediately.
After the reaction, the glucose concentration in each solution was measured using the F-kit Glucose (ex Roche) as in Example 1.
The procedures in Example 8 were repeated with the exception that sixteen samples with the concentrations shown in Table 13, Samples C-1 through C-16, were dissolved in 0.1 M phosphate buffer (pH 6.8) to a final volume of 2.5 ml.
The procedures in Example 8 were repeated with the exception that sixteen samples with the concentrations shown in Table 14, Samples D-1 through D-16, were dissolved in 0.1 M phosphate buffer (pH 6.8) to a final volume of 2.5 ml.

sucrase = target: T1, sucrase (Rattus norvegicus, UniProt P23739); test: Sucrase activity inhibition with rat small-intestinal enzyme liquid, substrate sucrose; type: biochemical
T1 construct: This liquid contained a mixture of enzymes present in small intestine, such as sucrose, glucoamylase, maltase, and isomaltase; tissue Sigma Corporation; host or cells: rat small intestine (acetone powder), buffer extract, unpurified
T1 sequence (P23739 whole entry): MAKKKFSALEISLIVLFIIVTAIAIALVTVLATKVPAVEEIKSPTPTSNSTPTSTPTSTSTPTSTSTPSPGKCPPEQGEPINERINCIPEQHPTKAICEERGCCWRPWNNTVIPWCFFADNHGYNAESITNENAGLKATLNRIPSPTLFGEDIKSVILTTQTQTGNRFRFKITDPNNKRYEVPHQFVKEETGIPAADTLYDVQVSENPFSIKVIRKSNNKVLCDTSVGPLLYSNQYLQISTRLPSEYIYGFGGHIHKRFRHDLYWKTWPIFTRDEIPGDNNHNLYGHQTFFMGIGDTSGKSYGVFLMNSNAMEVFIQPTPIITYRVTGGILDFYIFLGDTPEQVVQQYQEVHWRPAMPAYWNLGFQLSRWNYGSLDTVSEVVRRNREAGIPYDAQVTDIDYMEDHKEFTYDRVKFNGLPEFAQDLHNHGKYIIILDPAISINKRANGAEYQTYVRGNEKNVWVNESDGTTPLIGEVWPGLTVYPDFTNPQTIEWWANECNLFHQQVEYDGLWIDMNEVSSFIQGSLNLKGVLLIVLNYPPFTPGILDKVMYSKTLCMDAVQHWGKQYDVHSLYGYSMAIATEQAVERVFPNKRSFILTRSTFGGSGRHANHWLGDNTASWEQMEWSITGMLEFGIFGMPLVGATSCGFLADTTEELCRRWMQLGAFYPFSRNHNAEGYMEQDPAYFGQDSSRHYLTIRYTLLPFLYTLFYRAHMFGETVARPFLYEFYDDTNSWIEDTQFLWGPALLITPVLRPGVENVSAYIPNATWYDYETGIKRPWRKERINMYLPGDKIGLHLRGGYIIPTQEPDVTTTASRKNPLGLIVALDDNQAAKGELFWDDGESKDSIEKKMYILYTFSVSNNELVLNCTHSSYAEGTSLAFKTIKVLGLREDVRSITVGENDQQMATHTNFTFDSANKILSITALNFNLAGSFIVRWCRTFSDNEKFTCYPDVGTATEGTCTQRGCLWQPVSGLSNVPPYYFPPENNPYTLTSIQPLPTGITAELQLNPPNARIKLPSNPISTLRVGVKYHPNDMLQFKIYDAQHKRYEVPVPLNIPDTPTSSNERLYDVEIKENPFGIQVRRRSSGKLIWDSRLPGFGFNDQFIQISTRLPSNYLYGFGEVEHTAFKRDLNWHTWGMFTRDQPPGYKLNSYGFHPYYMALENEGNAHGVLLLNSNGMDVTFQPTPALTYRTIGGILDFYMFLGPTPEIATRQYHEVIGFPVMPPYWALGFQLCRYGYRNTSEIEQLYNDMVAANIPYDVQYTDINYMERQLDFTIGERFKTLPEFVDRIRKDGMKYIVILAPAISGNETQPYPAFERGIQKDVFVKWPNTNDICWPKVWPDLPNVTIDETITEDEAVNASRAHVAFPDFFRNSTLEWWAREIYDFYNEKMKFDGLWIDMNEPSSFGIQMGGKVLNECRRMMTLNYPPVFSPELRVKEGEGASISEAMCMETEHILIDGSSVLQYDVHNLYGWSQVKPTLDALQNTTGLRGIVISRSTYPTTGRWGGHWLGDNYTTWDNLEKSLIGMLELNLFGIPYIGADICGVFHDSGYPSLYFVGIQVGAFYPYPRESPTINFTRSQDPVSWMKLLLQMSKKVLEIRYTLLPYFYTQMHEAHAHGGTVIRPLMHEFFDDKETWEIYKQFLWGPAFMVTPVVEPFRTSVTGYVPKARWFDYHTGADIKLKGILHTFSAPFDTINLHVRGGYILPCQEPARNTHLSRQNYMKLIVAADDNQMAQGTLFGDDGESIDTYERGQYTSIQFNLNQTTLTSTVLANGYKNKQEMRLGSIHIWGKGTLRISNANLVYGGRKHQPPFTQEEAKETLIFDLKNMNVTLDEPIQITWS
Description: Palatinose (trade name: Palatinose IC, ex Shin Mitsui Sugar Co., Ltd.) (test sample) was used as a sample for investigating each enzyme activity inhibitory effect. Maltose and sucrose were used as substrates for maltase and sucrose, respectively. The test sample and the substrates were dissolved in 0.1 M phosphate buffer (pH 6.8) at the concentration shown in Table 1 below to prepare test solutions (Solutions 4 and 5). Also, the test sample or the substrates were dissolved in 0.1 M phosphate buffer (pH 6.8), respectively to at the concentration shown in Table 1 below to prepare control solutions (Solution 1 for the test sample and Solutions 2 and 3 for the substrates).
Two grams of rat small-intestinal acetone powder (ex Sigma Corporation) were dissolved in 20 ml of 0.1 M phosphate buffer (pH 6.8), left standing one day at 5° C., and subsequently subjected to centrifugal separation (8000 rpm×15 min.). The supernatant was filtered through a 0.8 μm membrane filter to obtain a small-intestinal enzyme liquid. This liquid contained a mixture of enzymes present in small intestine, such as sucrose, glucoamylase, maltase, and isomaltase.
Each 0.25 ml of the small-intestinal enzyme liquid was added to each 5 ml of Solutions 1 through 5 and placed in a water bath at 37° C. to allow them to react for 60 min. while shaken at 60 strokes/min. After the reaction, they were heated in a boiling water bath for 3 min. for inactivation of the enzymes.
The glucose concentration in each solution after the reaction was measured using the F-kit Glucose (ex Roche). A liberated glucose concentration (g/l) was calculated by subtracting the blank value (0.1 M phosphate buffer alone) and the concentration of glucose originally contained in the test sample from each glucose concentration measured.
Next, each of the liberated glucose concentration was input in the following equation to obtain decomposition inhibition ratio for maltase and sucrose. In the present tests, the substrates and the inhibitors were decomposed by enzymes present in the small-intestinal enzyme liquid. However, the enzymes decomposing the substrates are different from the enzymes decomposing the inhibitors. The decomposition inhibition ratio was determined as a measure for the inhibitory effect. When the inhibitor was added, the glucose concentration was lower than that seen when the substrate alone was reacted. A higher decomposition inhibition ratio means a stronger inhibitory effect.
Decomposition inhibition ratio,%={(A+B)−(AB)}+(A+B)×100 [Equation 1]
wherein (A+B) indicates a sum of a liberated glucose concentration in the control solution containing the test sample alone after the reaction (A) and a liberated glucose concentration in the control solution containing the substrate alone after the reaction (B); and (AB) indicates a liberated glucose concentration in the test solution containing the test sample (A) and the substrate (B), after the reaction.
The procedures in Example 1 were repeated with the exception that the test solutions contained 5% of sucrose and 0.5%, 1.0%, 3.0% or 5.0% of palatinose to examine intensity of the sucrose activity inhibition. A control solution contained 5% of sucrose in 0.1 M phosphate buffer (pH 6.8).
The procedures in Example 1 were repeated with the exception that palatinit and palatinose were used as test samples and sucrose was used as a substrate. The test samples and the substrate were dissolved in 0.1 M phosphate buffer (pH 6.8) to attain the concentration shown in Table 3 to thereby prepare two test solutions. Besides, each one of the test samples or the substrate was dissolved in 0.1 M phosphate buffer (pH 6.8) to attain the concentration shown in Table 3 to thereby prepare control solutions. Each 5 ml of the aforementioned test solutions or the control solutions was subjected to the enzymatic reaction according to the same procedures as in Example 1. The glucose concentration and the fructose concentration were measured. […]

[1] = 5% sucrose + 5% test sample, Example 3 / Test Example 2

For `OC[C@H]1O[C@H](OC[C@H]2OC(O)(CO)[C@@H](O)[C@@H]2O)[C@H](O)[C@@H](O)[C@@H]1O` (stereo partly drawn) [palatinose, isomaltulose], the “Ratio of inhibitor added relative to the weight of dextrin at which the inhibitory effect on decomposition of dextrin was seen at all dextrin concentrations” value (glucoamylase; dextrin 0.5%, 2%, 5%, 10%, FIG. 8 (palatinose), FIG. 9 (palatinit)) was “above 10%”, the “Inhibitory effect on decomposition of dextrin (FIG. 8)” value (glucoamylase; palatinose 5% relative to the weight of dextrin, dextrin concentration 10%) was “no inhibitory effect on decomposition of dextrin was seen” and the “Intensity of the sucrase activity inhibition, dependence on concentration (FIG. 1)” value (sucrase; 5% sucrose + 0.5%, 1.0%, 3.0% or 5.0% palatinose) was “inhibits sucrose activity depending upon its concentration”. For the same compound, the “Sucrase activity inhibitory effect (in words)” value (sucrase; 5% sucrose + 5% test sample) was “a sucrose activity inhibitory effect; also recorded: have a sucrose inhibitory effect”, the Liberated glucose concentration (sucrase; 5% sucrose + 5% test sample, 37° C., 60 min, Example 1 / Test Example 1) was 0.803 ± 0.055 g/L and the “Decomposition inhibition ratio, %, against sucrase” value (sucrase; 5% sucrose + 5% test sample, Equation 1, Example 1 / Test Example 1) was 24%. For the same compound, the “Decomposition inhibition ratio, %, against sucrase” value (sucrase; [1]) was 29%, the Liberated fructose concentration (sucrase; [1]) was 1.05 g/L and the Liberated glucose concentration (sucrase; [1]) was 0.79 g/L.
